Measurements taken from US20050192227A1, “Method for reducing the risk of cancer” (priority 1999, published 2005).

Experiments:
[1] = test system: MCF-7; settings: ER+ breast cancer cell line MCF-7, in vitro; cited from earlier work
[2] = test system: biochemical bone markers; experiment: Applicant's dose studies in human subjects: changes in biochemical bone markers; type: in vivo
Method: (§1) Therefore, for reducing risk on cancer in men or women with hPTH(1-34) according to the present invention, preferably one should use a daily dose greater than about 6 μg, more preferably at least about 15 μg. […] Therefore, any daily dose of hPTH(1-34) in the range of greater than about 6 μg to at least about 40 μg would be effective for reduction of the risk of cancer, according to the present method of using this form of parathyroid hormone. […] Accordingly, the present invention provides a method for reducing the risk of cancer in a human subject at risk thereof, comprising administering to the subject a parathyroid hormone. Preferably, the parathyroid hormone consists of amino acid sequence 1-34 of human parathyroid hormone. This hormone may be administered with or without concurrent administration of an antiresorptive agent other than vitamin D or calcium. Preferably, the hormone is administered in a daily dose in the range of about 15 μg to about 40 μg, for at least about 12 months. In this method for reducing the risk of cancer, the hormone may be administered for longer periods of several years (e.g., up to 3 years as in osteoporotic patients), including for the remaining life of a human subject identified as having a high risk of cancer.

[3] = test system: detectable tumors; experiment: Clinical trial of rhPTH(1-34) in postmenopausal women: incidence of cancer (patients with detectable tumors); type: in vivo, human; settings: for number of patients with detectable tumors, breast carcinoma: 17-23 months, placebo 7; for number of patients with detectable tumors, skin carcinoma: placebo 5; for number of patients with detectable tumors, all cancers except breast carcinoma: placebo 16; for number of patients with detectable tumors, all cancers: placebo 21
Method: • Number of Subjects: rhPTH(1-34): 1093 enrolled, 848 finished. • Placebo: 544 enrolled, 447 finished. • Diagnosis and Inclusion Criteria: Women ages 30 to 85 years, postmenopausal for a minimum of 5 years, with a minimum of one moderate or two mild atraumatic vertebral fractures. • Dosage and Administration: Test Product (blinded) • rhPTH(1-34): 20 μg/day, given subcutaneously • rhPTH(1-34): 40 μg/day, given subcutaneously • Reference Therapy (blinded) • Placebo study material for injection • Duration of Treatment: rhPTH(1-34): 17-23 months (excluding 6-month run-in phase) • Placebo: 17-23 months (excluding 6-month run-in phase)
Criteria for Evaluation: Spine x-ray; serum biological markers (calcium, bon-specific alkaline phosphatase, procollagen I carboxy-terminal propeptide); urine markers (calcium, N-telopeptide, free deoxypyridinoline); 1,25-dihydroxyvitanin D; bone mineral density: spine, hip, wrist, and total body; height; population pharmacokinetics; bone biopsy (selected study sites).
Table 1 illustrates data showing the reduction in the number of patients having detectable tumors upon treatment with PTH.

[4] = Undesirable side effects of daily doses in human subjects; type: in vivo; settings: daily dose of about 20 μg compared with about 40 μg
Method: as §1

[5] = Effectiveness of daily doses against osteoporosis in men and women; type: in vivo, human; settings: daily doses of 20 μg and 40 μg compared

## PTHrP: PTH-related peptide/protein
[1]
  response of MCF-7 cells to PTHrP: proliferates

## rhPTH(1-34)
[2]
  lowest tested dose found to be biologically active, as indicated by detectable changes in biochemical bone markers: about 15 μg
[2]; 6 μg dose
  effects on biochemical bone markers: no significant effects
[3]; PTH-20 (20 μg/day s.c., N = 541), p=0.017
  number of patients with detectable tumors, breast carcinoma: 1
[3]; PTH-20 (20 μg/day s.c., N = 541), p=0.532
  number of patients with detectable tumors, skin carcinoma: 2
[3]; PTH-20 (20 μg/day s.c., N = 541)
  number of patients with detectable tumors, all cancers except breast carcinoma: 7
[3]; PTH-20 (20 μg/day s.c., N = 541), p=0.03
  number of patients with detectable tumors, all cancers: 8
[3]; PTH-40 (40 μg/day s.c., N = 522), p=0.017
  number of patients with detectable tumors, breast carcinoma: 1
[3]; PTH-40 (40 μg/day s.c., N = 522), p=0.532
  number of patients with detectable tumors, skin carcinoma: 4
[3]; PTH-40 (40 μg/day s.c., N = 522)
  number of patients with detectable tumors, all cancers except breast carcinoma: 10
[3]; PTH-40 (40 μg/day s.c., N = 522), p=0.03
  number of patients with detectable tumors, all cancers: 11
[3]; all PTH-treated patients (20 and 40 μg/day pooled) vs. placebo 3.86%, p=0.03
  percentage of patients with any form of detectable cancer: 1.79%
[3]; all PTH-treated patients pooled vs. placebo 0.919%, p=0.532
  percentage of patients with skin carcinoma: 0.564%
[3]; all PTH-treated patients pooled vs. placebo 1.29%, p=0.017
  percentage of patients with breast carcinoma: 0.188%
[3]; all PTH-treated patients pooled vs. placebo 2.94%
  percentage of patients with any form of detectable cancer, excluding breast carcinoma: 1.60%
[4]
  undesirable side effects: fewer undesirable side effects
[5]
  effectiveness against osteoporosis: similarly effective
